In PMC4355085 (Cancer discovery, 2014):

Biological target: EphA2 (Homo sapiens, UniProt P29317)
Experiment: cell-free kinase assay
Type: biochemical

Sequence of EphA2 (P29317 24-976): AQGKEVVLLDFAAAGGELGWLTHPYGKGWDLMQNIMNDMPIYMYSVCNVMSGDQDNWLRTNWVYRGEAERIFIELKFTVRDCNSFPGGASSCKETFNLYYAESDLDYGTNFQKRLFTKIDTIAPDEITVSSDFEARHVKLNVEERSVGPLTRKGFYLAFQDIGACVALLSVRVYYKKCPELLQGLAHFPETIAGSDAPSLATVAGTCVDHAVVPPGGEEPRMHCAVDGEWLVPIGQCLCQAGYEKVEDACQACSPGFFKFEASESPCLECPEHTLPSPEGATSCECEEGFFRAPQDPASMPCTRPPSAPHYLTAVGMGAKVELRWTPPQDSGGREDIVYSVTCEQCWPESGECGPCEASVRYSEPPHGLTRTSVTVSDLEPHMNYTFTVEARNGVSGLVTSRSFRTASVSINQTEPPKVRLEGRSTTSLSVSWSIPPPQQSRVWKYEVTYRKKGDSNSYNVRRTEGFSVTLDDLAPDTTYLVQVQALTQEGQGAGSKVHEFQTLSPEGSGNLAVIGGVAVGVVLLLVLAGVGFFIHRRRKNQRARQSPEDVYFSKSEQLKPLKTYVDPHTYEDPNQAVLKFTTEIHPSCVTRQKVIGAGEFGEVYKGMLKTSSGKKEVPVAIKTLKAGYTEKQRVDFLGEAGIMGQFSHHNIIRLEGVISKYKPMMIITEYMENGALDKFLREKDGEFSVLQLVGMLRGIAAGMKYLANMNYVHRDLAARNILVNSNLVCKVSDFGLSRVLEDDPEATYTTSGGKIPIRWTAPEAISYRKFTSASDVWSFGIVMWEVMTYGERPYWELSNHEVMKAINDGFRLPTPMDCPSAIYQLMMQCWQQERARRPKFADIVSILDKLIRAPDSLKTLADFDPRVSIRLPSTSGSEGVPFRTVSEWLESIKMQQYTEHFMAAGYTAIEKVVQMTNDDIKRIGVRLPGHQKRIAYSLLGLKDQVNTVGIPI

- IC50: 77.1 nM
Compound: CCN1CCN(Cc2ccc(NC(=O)c3ccc(C)c(/C=C/c4cnc5[nH]ccc5c4OC)c3)cc2C(F)(F)F)CC1 [HG-6-64-1]
